Data set [1] is described as follows: log P by HPLC on reversed-phase column (C 18), EEC Directive 79/831 Annex V.A8. To be noted: 40° C., 0.1% aqueous formic acid and acetonitrile; for logP: HPLC on reversed-phase column (C 18), linear gradient 10% to 90% acetonitrile; for chromatographic logP: reversed-phase HPLC column (C 18), HPLC. In kind it is physicochemical. The method, then:
In table 1, the log P values were determined in accordance with EEC Directive 79/831 Annex V.A8 by HPLC (High Performance Liquid Chromatography) on a reversed-phase column (C 18), using the method described below: Temperature: 40° C.; Mobile phases: 0.1% aqueous formic acid and acetonitrile; linear gradient from 10% acetonitrile to 90% acetonitrile. Calibration was carried out using unbranched alkan-2-ones (comprising 3 to 16 carbon atoms) with known log P values (determination of the log P values by the retention times using linear interpolation between two successive alkanones). lambda-max-values were determined using UV-spectra from 200 nm to 400 nm and the peak values of the chromatographic signals.

Another data set concerns Pyrenophora teres. As to the kind of experiment: In vivo preventive test on Pyrenophora teres (barley). To be noted: 500 ppm of active ingredient, evaluated 7-9 days after inoculation. The protocol: Solvent: 49 parts by weight of N,N-dimethylformamide Emulsifier: 1 part by weight of alkylaryl polyglycol ether To produce a suitable preparation of active compound, 1 part by weight of active compound is mixed with the stated amounts of solvent and emulsifier, and the concentrate is diluted with water to the desired concentration. To test for preventive activity, young plants are sprayed with the preparation of active compound at the stated rate of application. One day after this treatment, the plants are inoculated with an aqueous spore suspension of Pyrenophora teres. The plants remain for 48 hours in an incubation cabinet at 22° C. and a relative atmospheric humidity of 100%. Then the plants are placed in a greenhouse at a temperature of approximately 20° C. and a relative atmospheric humidity of approximately 80%. The test is evaluated 7-9 days after the inoculation. 0% means an efficacy which corresponds to that of the untreated control while an efficacy of 100% means that no disease is observed.

In general, logP refers to the decadic logarithm of the partition coefficient of the neutral form, usually between octanol and water. Read a low logP as lower lipophilicity. `CCc1noc(C)c1C(=O)N1CCCCC1c1ccccc1C` (centres unmarked) [Example 2] gave a logP in data set [1] of 3.19.
The compound `Cc1cc(C(=O)N2CCCCC2c2ccccc2C)c(C)o1` (centres unmarked) [Example 3] returned a logP in data set [1] of 3.73. This compound yielded an Efficacy in the data set with Pyrenophora teres of 80%.
On the same counts, the results for `Cc1cc(C)cc(C2CCCCN2C(=O)c2cc(C)oc2C)c1` (centres unmarked) [Example 12] are 4.34 and 90%.
In data set [1], `Cc1cc(C)cc(C2CCCCN2C(=O)c2nn(C)cc2I)c1` (centres unmarked) [Example 13] had a logP of 3.55.
Same read-out and setting: the value for `Cc1cc(C)cc(C2CCCCN2C(=O)c2cn(C)nc2[N+](=O)[O-])c1` (centres unmarked) [Example 14] was 3.09.
In turn, `Cc1cc(C)cc(C2CCCCN2C(=O)c2nnsc2C)c1` (centres unmarked) [Example 15] registered a logP in data set [1] of 3.60.
On to `Cc1cc(C)cc(C2CCCCN2C(=O)c2snnc2C(C)C)c1` (centres unmarked) [Example 16], for which the logP in data set [1] is 4.59.
The same measure, in the same setting: the value for `Cc1cc(C)cc(C2CCCCN2C(=O)c2snnc2C)c1` (centres unmarked) [Example 17] was 3.71; that for `Cc1cc(C)cc(C2CCCCN2C(=O)c2nn(C)cc2Br)c1` (centres unmarked) [Example 18] was 3.55; that for `Cc1cc(C)cc(C2CCCCN2C(=O)c2nn(C)cc2Cl)c1` (centres unmarked) [Example 19] was 3.44.
For the compound `CCn1nc(C)c(C(=O)N2CCCCC2c2cc(C)cc(C)c2)c1F` (centres unmarked) [Example 20], in data set [1], the lipophilicity (logP) stood at 3.67.
`Cc1cc(C)cc(C2CCCCN2C(=O)c2scnc2Cl)c1` (centres unmarked) [Example 21]: in data set [1], the logP is listed as 3.73.
In the case of `Cc1cc(C)cc(C2CCCCN2C(=O)c2c(C(F)(F)F)cn(C)c2Cl)c1` (centres unmarked) [Example 22], the logP in data set [1] came to 4.59.
The compound `Cc1cc(C)cc(C2CCCCN2C(=O)c2sc(Cl)nc2Cl)c1` (centres unmarked) [Example 23] gave a logP in data set [1] of 4.86.
Compound `Cc1cc(C)cc(C2CCCCN2C(=O)c2cn(C)nc2C(Cl)Cl)c1` (centres unmarked) [Example 24] returned a logP in data set [1] of 3.85.
`Cc1cc(C)cc(C2CCCCN2C(=O)c2sc(Cl)nc2C)c1` (centres unmarked) [Example 25] registered a logP in data set [1] of 4.49.
In turn, `Cc1cc(C)cc(C2CCCCN2C(=O)c2sc(Br)nc2C)c1` (centres unmarked) [Example 26] returned a logP in data set [1] of 4.51.
On the same count and under the same terms, the value for `Cc1cc(C)cc(C2CCCCN2C(=O)c2sc(C)nc2C)c1` (centres unmarked) [Example 27] was 3.44; that for `Cc1cc(C)cc(C2CCCCN2C(=O)c2sc(C)nc2Cl)c1` (centres unmarked) [Example 28] was 4.06.
`Cc1cc(C)cc(C2CCCCN2C(=O)c2scnc2C)c1` (centres unmarked) [Example 29] came in with a logP in data set [1] of 3.25.
In data set [1], `CCn1ncc(Cl)c1C(=O)N1CCCCC1c1cc(C)cc(C)c1` (centres unmarked) [Example 32] had a logP of 4.34.
Turning to `Cc1cc(C)cc(C2CCCCN2C(=O)c2c(C)oc(C)c2Br)c1` (centres unmarked) [Example 33], the logP in data set [1] is 4.93.
Still for that read-out and setting: the value for `Cc1cc(C)cc(C2CCCCN2C(=O)c2ccsc2I)c1` (centres unmarked) [Example 35] was 4.21.
In data set [1], `CCc1noc(C)c1C(=O)N1CCCCC1c1ccccc1Cl` (centres unmarked) [Example 38] had a logP of 3.29.
In data set [1], `Cc1cc(C(=O)N2CCCCC2c2ccccc2Cl)c(C)o1` (centres unmarked) [Example 39] showed a logP of 3.89.
In data set [1], `CCc1noc(C)c1C(=O)N1CCCCC1c1cccc(Cl)c1` (centres unmarked) [Example 45] gave a logP of 3.48.
As to `Cc1cc(C(=O)N2CCCCC2c2cccc(Cl)c2)c(C)o1` (centres unmarked) [Example 46], in data set [1], the logP worked out at 4.04. Moreover, in the data set on Pyrenophora teres, the Efficacy amounted to 90%.
`Cn1nc(C(F)F)c(C(=S)N2CCCCC2c2cccc(Cl)c2)c1Cl` (centres unmarked) [Example 50] gave a logP in data set [1] of 4.31. In the data set on Pyrenophora teres, this compound returned an Efficacy of 100%.
`CCc1noc(C)c1C(=O)N1CCCCC1c1ccc(Cl)cc1` (centres unmarked) [Example 52] yielded a logP in data set [1] of 3.51.
As to `CCc1noc(C)c1C(=O)N1CCCCC1c1ccc2c(c1)OCCO2` (centres unmarked) [Example 61], in data set [1], the logP came out at 2.82.
For `Cc1cc(C(=O)N2CCCCC2c2ccc3c(c2)OCCO3)c(C)o1` (centres unmarked) [Example 62], in data set [1], the logP was found to be 3.25.
As to `CCc1nn(C)c(F)c1C(=O)N1CCCCC1c1ccc2c(c1)OCCO2` (centres unmarked) [Example 63], in data set [1], the logP amounted to 2.66.
For `Cc1nn(C)c(F)c1C(=O)N1CCCCC1c1ccc2c(c1)OCCO2` (centres unmarked) [Example 64], the logP in data set [1] came to 2.39. In the data set with Pyrenophora teres, this compound displayed an Efficacy of 95%.
In data set [1], `Cn1nc(C(F)F)c(C(=O)N2CCCCC2c2ccc3c(c2)OCCO3)c1Cl` (centres unmarked) [Example 66] registered a logP of 2.99.
`CCc1noc(C)c1C(=O)N1CCCCC1c1cc(OC)cc(OC)c1` (centres unmarked) [Example 69] displayed a logP in data set [1] of 3.02.
In data set [1], `COc1cc(OC)cc(C2CCCCN2C(=O)c2cc(C)oc2C)c1` (centres unmarked) [Example 70] showed a logP of 3.48. Besides, the Efficacy in the data set with Pyrenophora teres came out at 80%.
The compound `CCc1noc(C)c1C(=O)N1CCCCC1c1cccc(Cl)c1Cl` (centres unmarked) [Example 74] came in with a logP in data set [1] of 3.73.
In turn, `Cc1nn(C)c(Cl)c1C(=O)N1CCCCC1c1ccc(Cl)cc1Cl` (centres unmarked) [Example 75] returned a logP in data set [1] of 3.60.
In data set [1], `CCc1noc(C)c1C(=O)N1CCCCC1c1ccc(Cl)cc1Cl` (centres unmarked) [Example 77] returned a logP of 3.89.
Regarding `Cc1cc(C(=O)N2CCCCC2c2ccc(Cl)cc2Cl)c(C)o1` (centres unmarked) [Example 79], in data set [1], the logP was determined as 4.54. This compound displayed an Efficacy in the data set with Pyrenophora teres of 80%.
As for `Cc1cc(C(=O)N2CCCCC2c2cc(Cl)ccc2Cl)c(C)o1` (centres unmarked) [Example 84], the logP in data set [1] stood at 4.36. In the data set with Pyrenophora teres, the Efficacy was determined as 90%.
With `CCc1noc(C)c1C(=O)N1CCCCC1c1cc(Cl)ccc1Cl` (centres unmarked) [Example 85], in data set [1], the logP is recorded as 3.78.
`CCc1noc(C)c1C(=O)N1CCCCC1c1ccccc1Br` (centres unmarked) [Example 89] returned a logP in data set [1] of 3.35.
On to `Cc1cc(C(=O)N2CCCCC2c2ccc(Br)cc2)c(C)o1` (centres unmarked) [Example 100], for which the lipophilicity (logP) in data set [1] is reported as 4.16. The compound further showed an Efficacy with Pyrenophora teres of 70%.
`CCc1noc(C)c1C(=O)N1CCCCC1c1ccc(Br)cc1` (centres unmarked) [Example 101] came in with a logP in data set [1] of 3.64.
With `CCc1nn(C)c(F)c1C(=O)N1CCCCC1c1ccc(Br)cc1` (centres unmarked) [Example 102], the lipophilicity (logP) in data set [1] was 3.51. This compound yielded an Efficacy in the data set on Pyrenophora teres of 100%.
In data set [1], `COc1cc(C2CCCCN2C(=O)c2c(C)nn(C)c2F)cc(OC)c1OC` (centres unmarked) [Example 106] registered a logP of 2.21.
Regarding `CCc1noc(C)c1C(=O)N1CCCCC1c1cc(OC)c(OC)c(OC)c1` (centres unmarked) [Example 107], the logP in data set [1] is listed as 2.64.
With `COc1cc(C2CCCCN2C(=O)c2cc(C)oc2C)cc(OC)c1OC` (centres unmarked) [Example 108], in data set [1], the logP worked out at 3.04.
`CCc1nn(C)c(F)c1C(=O)N1CCCCC1c1cc(OC)c(OC)c(OC)c1` (centres unmarked) [Example 109] yielded a logP in data set [1] of 2.49.
In data set [1], `Cc1cc(C(=O)N2CCCCC2c2cccc(Oc3ccccc3)c2)c(C)o1` (centres unmarked) [Example 111] displayed a logP of 4.65.
Regarding `CCc1noc(C)c1C(=O)N1CCCCC1c1ccc2ccccc2c1` (centres unmarked) [Example 119], in data set [1], the logP is given as 3.76.
Consider `Cc1cc(C(=O)N2CCCCC2c2ccc(Br)s2)c(C)o1` (centres unmarked) [Example 127], for which the logP in data set [1] was found to be 4.29.
The same measure, in the same setting: the value for `CCn1nc(C)c(C(=O)N2CCCCC2c2ccc(Br)s2)c1F` (centres unmarked) [Example 128] was 3.55; that for `CCc1noc(C)c1C(=O)N1CCCCC1Cc1ccccc1` (centres unmarked) [Example 130] was 3.11.
In the case of `Cc1nc(C(F)F)c(C(=O)N2CCCCC2Cc2ccccc2)s1` (centres unmarked) [Example 133], the logP in data set [1] is reported as 3.17.
The compound `Cc1cc(C(=O)N2CCCCC2Cc2cccc(F)c2)c(C)o1` (centres unmarked) [Example 152] came in with a logP in data set [1] of 3.59.
The same measure, in the same setting: the value for `COc1ccccc1CC1CCCCN1C(=O)c1cc(C)oc1C` (centres unmarked) [Example 158] was 3.63; that for `Cc1nc(C(F)F)c(C(=O)N2CCCCC2Cc2cccc(C(F)(F)F)c2)s1` (centres unmarked) [Example 167] was 3.70.
In the case of `Cc1cc(C(=O)N2CCCCC2Cc2cccc(C(F)(F)F)c2)c(C)o1` (centres unmarked) [Example 168], the logP in data set [1] came out at 4.06.
For `Cc1nc(C(F)F)c(C(=O)N2CCCCC2Cc2cccc3ccccc23)s1` (centres unmarked) [Example 170], the logP in data set [1] turned out to be 3.76.
On to `Cn1nc(C(F)F)c(C(=O)N2CCCCC2Cc2cccc3ccccc23)c1F` (centres unmarked) [Example 171], for which the logP in data set [1] is reported as 3.65.
As to `CCc1noc(C)c1C(=O)N1CCCCC1CCc1ccccc1` (centres unmarked) [Example 174], the logP in data set [1] is given as 3.44.
Still for that read-out and setting: the value for `Cc1cc(C(=O)N2CCCCC2CCc2ccccc2)c(C)o1` (centres unmarked) [Example 175] was 3.92; that for `Cc1nc(C(F)F)c(C(=O)N2CCCCC2CCc2ccccc2)s1` (centres unmarked) [Example 178] was 3.52.
`Cc1nc(C(F)F)c(C(=O)N2CCCCC2CCc2cccs2)s1` (centres unmarked) [Example 192] displayed a logP in data set [1] of 3.35.
Consider `Cc1cc(C(=O)N2CCCCC2CCc2cccs2)c(C)o1` (centres unmarked) [Example 193], for which the logP in data set [1] worked out at 3.79.
In general, chromatographic logP refers to lipophilicity estimated from chromatographic retention. Read a high chromatographic logP as higher lipophilicity. `Cc1ccc(C2CCCC(C)N2C(=O)c2c(C(F)F)nn(C)c2F)cc1` (centres unmarked) [Example 197] had a chromatographic logP in data set [1] of 3.55.
Turning to `Cc1ccc(C2CCCC(C)N2C(=O)c2c(C(F)F)nn(C)c2Cl)cc1` (centres unmarked) [Example 198], in data set [1], the chromatographic logP was found to be 3.73.
Compound `Cc1ccc(C2CCCC(C)N2C(=O)c2cn(C)nc2C(F)F)cc1` (centres unmarked) [Example 199] gave a chromatographic logP in data set [1] of 3.17.

Values taken from US9545105B2, “1-(heterocyclic carbonyl) piperidines” (BAYER INTELLECTUAL PROPERTY GMBH, priority 2010, dated 2017).
